How the values were obtained:
[1] = target: T1, human dopamine D3 receptors (Homo sapiens, UniProt P35462); test: Dopamine D3 receptor binding, displacement of [125I]-iodosulpride; details: for Ki: membranes of HEK-293 cells stably expressing human D3, 0.1 nM [125I]-iodosulpride, 25° C., 60 minutes; for Ki(D2)*/Ki(D3)*: selectivity ratio of the receptor binding constants D2 over D3
T1 construct: expressed in transfected cells
Description: (§1) The substance to be tested was either dissolved in methanol/Chremophor® (BASFAG) or in dimethyl sulfoxide and then diluted with water to the desired concentration.
(§2) Each assay mixture was run in triplicate.
The incubation buffer contained 50 mM tris, 120 mM NaCl, 5 mM KCl, 2 mM CaCl2, 2 mM MgCl2 and 0.1% bovine serum albumin, 10 μM quinolone and 0.1% ascorbic acid (prepared fresh daily). The buffer was adjusted to pH 7.4 with HCl.
(§3) After having been incubated at 25° C. for 60 minutes, the assay mixtures were filtered through a Whatman GF/B glass fiber filter under vacuum using a cell collecting device. The filters were transferred to scintillation viols using a filter transfer system. After 4 ml of Ultima Gold® (Packard) have been added, the samples were shaken for one hour and the radioactivity was then counted in a Beta-Counter (Packard, Tricarb 2000 or 2200CA). The cpm values were converted into dpm using a standard quench series and the program belonging to the instrument.
(§4) The inhibition curves were analyzed by means of iterative nonlinear regression analysis using the Statistical Analysis System (SAS) which is similar to the “LIGAND” program described by Munson and Rodbard.
(§5) The results of the receptro binding studies are expressed as receptor binding constants Ki(D2) and Ki(D3), respectively, as herein before described, and given in table 6.

[2] = target: T2, human dopamine D2L receptors (long isoform) (Homo sapiens, UniProt P14416); test: Dopamine D2L receptor binding, displacement of [125I] iodospiperone; details: membranes of HEK-293 cells stably expressing human D2L; 0.01 nM [125I] iodospiperone; 25° C., 60 minutes; read-out: Ki(D2)*
T2 construct: expressed in transfected cells
Description: as §1, §2
The incubation buffer contained 50 mM tris, 120 mM NaCl, 5 mM KCl, 2 mM CaCl2, 2 mM MgCl2 and 0.1% bovine serum albumin. The buffer was adjusted to pH 7.4 with HCl.
as §3, §4, §5

T1 sequence (P35462 whole entry): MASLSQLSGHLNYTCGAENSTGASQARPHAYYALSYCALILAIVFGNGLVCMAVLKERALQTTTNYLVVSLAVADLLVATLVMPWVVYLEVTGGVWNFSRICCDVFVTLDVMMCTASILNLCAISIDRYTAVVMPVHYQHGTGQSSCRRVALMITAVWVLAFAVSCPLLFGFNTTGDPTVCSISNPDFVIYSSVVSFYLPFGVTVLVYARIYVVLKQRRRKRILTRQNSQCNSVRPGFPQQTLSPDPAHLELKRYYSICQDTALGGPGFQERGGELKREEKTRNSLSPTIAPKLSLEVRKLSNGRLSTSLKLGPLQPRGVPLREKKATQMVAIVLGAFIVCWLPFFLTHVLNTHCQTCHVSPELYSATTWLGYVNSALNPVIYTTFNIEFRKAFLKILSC
T2 sequence (P14416 whole entry, canonical isoform): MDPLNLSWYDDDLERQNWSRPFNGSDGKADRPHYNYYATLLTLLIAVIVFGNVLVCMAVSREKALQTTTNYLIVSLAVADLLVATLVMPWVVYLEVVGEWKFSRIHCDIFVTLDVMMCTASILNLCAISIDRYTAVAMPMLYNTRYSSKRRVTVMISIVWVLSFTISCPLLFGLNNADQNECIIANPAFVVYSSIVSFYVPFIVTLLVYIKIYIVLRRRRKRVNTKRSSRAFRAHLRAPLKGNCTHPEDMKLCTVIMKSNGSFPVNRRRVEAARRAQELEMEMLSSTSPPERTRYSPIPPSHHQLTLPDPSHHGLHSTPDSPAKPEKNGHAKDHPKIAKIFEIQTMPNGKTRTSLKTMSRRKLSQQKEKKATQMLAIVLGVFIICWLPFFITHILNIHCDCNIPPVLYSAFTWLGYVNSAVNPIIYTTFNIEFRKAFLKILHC

| Ki [1] | Ki(D2)*/Ki(D3)* [1] | Ki [2] | Structure (SMILES) |
| --- | --- | --- | --- |
| 5.8 nM | 74 | 430 nM | CCCN1CCC(c2ccc(NS(=O)(=O)c3ccc(C(C)C)cc3)cn2)C1 (single isomer, unassigned; (-)) [Example 131, (−)-N-[6-(1-Propyl-pyrrolidin-3-yl)-pyridin-3-yl]-4-isopropyl-benzene-sulfonamide] |
| 0.09 nM | 89 | 7.6 nM | CCCN1CC[C@@H](c2ccc(NS(=O)(=O)c3ccc(C(C)C)cc3)cc2)C1.Cl [Example 1, 4-Isopropyl-N-[4-((S)-1-propyl-pyrrolidin-3-yl)-phenyl]-benzenesulfonamide hydrochloride] |
| 0.24 nM | 9 | 2.3 nM | CCCN1CC[C@@H](c2ccc(NS(=O)(=O)c3ccc(C(C)(C)CC)cc3)cc2)C1.Cl [Example 2, 4-(1,1-Dimethyl-propyl)-N-[4-((S)-1-propyl-pyrrolidin-3-yl)-phenyl]-benzenesulfonamide hydrochloride] |
| 0.17 nM | 91 | 13.8 nM | C=CCN1CC[C@@H](c2ccc(NS(=O)(=O)c3ccc(C(C)C)cc3)cc2)C1.Cl [Example 3, 4-(Isopropyl)-N-[4-((S)-1-allyl-pyrrolidin-3-yl)-phenyl]-benzenesulfonamide hydrochloride] |
| 3.16 nM | 127 | 403 nM | C=CCN1CC[C@H](c2ccc(NS(=O)(=O)c3ccc(C(C)C)cc3)cc2)C1.Cl [Example 4, 4-(Isopropyl)-N-[4-((R)-1-allyl-pyrrolidin-3-yl)-phenyl]-benzenesulfonamide hydrochloride] |
| 2.9 nM | 93 | 267 nM | CCCN1CC[C@H](c2ccc(NS(=O)(=O)c3ccc(C(C)C)cc3)cc2)C1.Cl [Example 5, 4-(Isopropyl)-N-[4-((R)-1-propyl-pyrrolidin-3-yl)-phenyl]benzenesulfonamide hydrochloride] |
| 0.45 nM | 45 | 20.1 nM | CCCN1CC[C@@H](c2ccc(NS(=O)(=O)c3ccc(CC)cc3)cc2)C1.Cl [Example 6, 4-Ethyl-N-[4-((S)-1-propyl-pyrrolidin-3-yl)-phenyl]-benzenesulfonamide hydrochloride] |
| 3.5 nM | 61 | 212 nM | CCCN1CC[C@@H](c2ccc(NS(=O)(=O)c3ccc(OC(F)(F)F)cc3)cc2)C1.Cl [Example 7, 4-Trifluoromethoxy-N-[4-((S)-1-propyl-pyrrolidin-3-yl)-phenyl]-benzenesulfonamide hydrochloride] |
| 4.1 nM | 57 | 235 nM | CCCN1CC[C@@H](c2ccc(NS(=O)(=O)c3ccc(C(F)(F)F)cc3)cc2)C1.Cl [Example 8, 4-Trifluoromethyl-N-[4-((S)-1-propyl-pyrrolidin-3-yl)-phenyl]-benzenesulfonamide hydrochloride] |
| 2.6 nM | 49 | 129 nM | CCCN1CC[C@@H](c2ccc(NS(=O)(=O)c3ccc(OC(F)F)cc3)cc2)C1.Cl [Example 9, 4-Difluoromethoxy-N-[4-((S)-1-propyl-pyrrolidin-3-yl)-phenyl]-benzenesulfonamide hydrochloride] |
| 1.9 nM | 60 | 111 nM | CCCN1CC[C@@H](c2ccc(NS(=O)(=O)c3ccc(C)cc3)cc2)C1.Cl [Example 10, 4-Methyl-N-[4-((S)-1-propyl-pyrrolidin-3-yl)-phenyl]-benzenesulfonamide hydrochloride] |
| 3 nM | 43 | 131 nM | CCCN1CC[C@@H](c2ccc(NS(=O)(=O)c3ccc(OC)cc3)cc2)C1 [Example 12, 4-Methoxy-N-[4-((S)-1-propyl-pyrrolidin-3-yl)-phenyl]-benzenesulfonamide] |
| 3.1 nM | 54 | 168 nM | CCCN1CC[C@@H](c2ccc(NS(=O)(=O)c3ccc(Cl)cc3)cc2)C1 [Example 13, 4-Chloro-N-[4-((S)-1-propyl-pyrrolidin-3-yl)-phenyl]-benzenesulfonamide] |
| 3.4 nM | 37 | 123 nM | CCCN1CC[C@@H](c2ccc(NS(=O)(=O)c3ccc4c(c3)CCO4)cc2)C1 [Example 14, 2,3-Dihydro-benzofuran-5-sulfonic acid [4-((S)-1-propyl-pyrrolidin-3-yl)-phenyl]-amide] |
| 1.9 nM | 39 | 74 nM | CCCN1CC[C@@H](c2ccc(NS(=O)(=O)c3ccc(Br)c(F)c3)cc2)C1 [Example 15, 4-Bromo-3-fluoro-N-[4-((S)-1-propyl-pyrrolidin-3-yl)-phenyl]-benzenesulfonamide] |
| 12.6 nM | 31 | 393 nM | CCCN1CC[C@@H](c2ccccc2NS(=O)(=O)c2ccc(Br)c(F)c2)C1 [Example 16, 4-Bromo-3-fluoro-N-[2-((S)-1-propyl-pyrrolidin-3-yl)-phenyl]-benzenesulfonamide] |
| 3.1 nM | 41 | 126 nM | CCCN1CC[C@@H](c2ccc(NS(=O)(=O)c3ccc(Br)cc3F)cc2)C1 [Example 17, 4-Bromo-2-fluoro-N-[4-((S)-1-propyl-pyrrolidin-3-yl)-phenyl]-benzenesulfonamide] |
| 2.3 nM | 39 | 90 nM | CC(C)c1ccc(S(=O)(=O)Nc2ccc([C@@H]3CCNC3)cc2)cc1 [Example 18, 4-Isopropyl-N-[4-((S)-pyrrolidin-3-yl)-phenyl]-benzenesulfonamide] |
| 0.48 nM | 26 | 12.6 nM | C=C(C)c1ccc(S(=O)(=O)Nc2ccc([C@@H]3CCN(CCC)C3)cc2)c(F)c1 [Example 19, 2-Fluoro-4-isopropenyl-N-[4-((S)-1-propyl-pyrrolidin-3-yl)-phenyl]-benzenesulfonamide] |
| 0.3 nM | 24 | 7.3 nM | C=C(C)c1ccc(S(=O)(=O)Nc2ccc([C@@H]3CCN(CCC)C3)cc2)cc1F [Example 20, 3-Fluoro-4-isopropenyl-N-[4-((S)-1-propyl-pyrrolidin-3-yl)-phenyl]-benzenesulfonamide] |
| 0.4 nM | 27 | 11 nM | CCCN1CC[C@@H](c2ccc(NS(=O)(=O)c3ccc(C(C)C)cc3F)cc2)C1 [Example 21, 2-Fluoro-4-isopropyl-N-[4-((S)-1-propyl-pyrrolidin-3-yl)-phenyl]-benzenesulfonamide] |
| 1.07 nM | 44 | 46.6 nM | CCCN1CC[C@@H](c2ccc(NS(=O)(=O)c3ccc(OC(C)C)cc3)cc2)C1.Cl [Example 23, 4-Isopropoxy-N-[4-((S)-1-propyl-pyrrolidin-3-yl)-phenyl]-benzenesulfonamide hydrochloride] |
| 1.2 nM | 60 | 72 nM | CCCN1CC[C@@H](c2ccc(NS(=O)(=O)c3ccc4c(c3)CCC4)cc2)C1.Cl [Example 24, Indan-5-sulfonic acid [4-((S)-1-propyl-pyrrolidin-3-yl)-phenyl]-amide hydrochloride] |
| 1.6 nM | 60 | 95 nM | CCCN1CC[C@@H](c2ccc(NS(=O)(=O)c3ccc(Br)cc3)cc2)C1.Cl [Example 25, 4-Bromo-N-[4-((S)-1-propyl-pyrrolidin-3-yl)-phenyl]-benzenesulfonamide hydrochloride] |
| 21.3 nM | – | – | CCCN1CC(c2ccc(NS(=O)(=O)c3ccc(CCC(F)(F)F)cc3)cc2)C1 [Example 61, N-[4-(1-Propyl-azetidin-3-yl)-phenyl]-4-(3,3,3-trifluoro-propyl)-benzenesulfonamide] |
| 0.76 nM | 13 | – | CCCN1CCC(c2ccc(NS(=O)(=O)c3ccc(C(C)C)cc3)c(F)c2)C1.Cl (stereo not drawn) [Example 134, N-[2-Fluoro-4-(1-propyl-pyrrolidin-3-yl)-phenyl]-4-isopropyl-benzenesulfonamide, hydrochloride] |
| 0.85 nM | 17 | – | CC(=O)O.COc1cc(C2CCNC2)ccc1NS(=O)(=O)c1ccc(C(C)C)cc1 (stereo not drawn) [Example 135, 4-Isopropyl-N-(2-methoxy-4-pyrrolidin-3-yl-phenyl)-benzenesulfonamide, acetate] |
| 0.27 nM | 6 | – | CCCN1CCC(c2ccc(NS(=O)(=O)c3ccc(C(C)C)cc3)c(OC)c2)C1.Cl (stereo not drawn) [Example 136, 4-Isopropyl-N-[2-methoxy-4-(1-propyl-pyrrolidin-3-yl)-phenyl]-benzenesulfonamide, hydrochloride] |
| 0.36 nM | 12 | – | C=CCN1CCC(c2ccc(NS(=O)(=O)c3ccc(C(C)C)cc3)c(OC)c2)C1.Cl (stereo not drawn) [Example 137, N-[4-(1-Allyl-pyrrolidin-3-yl)-2-methoxy-phenyl]-4-isopropyl-benzenesulfonamide, hydrochloride] |
